The source of these data is patent publication US20120122181A1, “METHOD FOR DETERMINING ANTAGONIST ACTIVITY TO A CYTOKININ RECEPTOR” (SUMITOMO CHEMICAL COMPANY, LIMITED, priority 2001, published 2012).

Experiment [1] has as its target T1, cytokinin receptor AHK2 (transformed cell TM182-AHK2) (Arabidopsis thaliana, UniProt Q9C5U2).
T1 sequence (Q9C5U2 1-1176): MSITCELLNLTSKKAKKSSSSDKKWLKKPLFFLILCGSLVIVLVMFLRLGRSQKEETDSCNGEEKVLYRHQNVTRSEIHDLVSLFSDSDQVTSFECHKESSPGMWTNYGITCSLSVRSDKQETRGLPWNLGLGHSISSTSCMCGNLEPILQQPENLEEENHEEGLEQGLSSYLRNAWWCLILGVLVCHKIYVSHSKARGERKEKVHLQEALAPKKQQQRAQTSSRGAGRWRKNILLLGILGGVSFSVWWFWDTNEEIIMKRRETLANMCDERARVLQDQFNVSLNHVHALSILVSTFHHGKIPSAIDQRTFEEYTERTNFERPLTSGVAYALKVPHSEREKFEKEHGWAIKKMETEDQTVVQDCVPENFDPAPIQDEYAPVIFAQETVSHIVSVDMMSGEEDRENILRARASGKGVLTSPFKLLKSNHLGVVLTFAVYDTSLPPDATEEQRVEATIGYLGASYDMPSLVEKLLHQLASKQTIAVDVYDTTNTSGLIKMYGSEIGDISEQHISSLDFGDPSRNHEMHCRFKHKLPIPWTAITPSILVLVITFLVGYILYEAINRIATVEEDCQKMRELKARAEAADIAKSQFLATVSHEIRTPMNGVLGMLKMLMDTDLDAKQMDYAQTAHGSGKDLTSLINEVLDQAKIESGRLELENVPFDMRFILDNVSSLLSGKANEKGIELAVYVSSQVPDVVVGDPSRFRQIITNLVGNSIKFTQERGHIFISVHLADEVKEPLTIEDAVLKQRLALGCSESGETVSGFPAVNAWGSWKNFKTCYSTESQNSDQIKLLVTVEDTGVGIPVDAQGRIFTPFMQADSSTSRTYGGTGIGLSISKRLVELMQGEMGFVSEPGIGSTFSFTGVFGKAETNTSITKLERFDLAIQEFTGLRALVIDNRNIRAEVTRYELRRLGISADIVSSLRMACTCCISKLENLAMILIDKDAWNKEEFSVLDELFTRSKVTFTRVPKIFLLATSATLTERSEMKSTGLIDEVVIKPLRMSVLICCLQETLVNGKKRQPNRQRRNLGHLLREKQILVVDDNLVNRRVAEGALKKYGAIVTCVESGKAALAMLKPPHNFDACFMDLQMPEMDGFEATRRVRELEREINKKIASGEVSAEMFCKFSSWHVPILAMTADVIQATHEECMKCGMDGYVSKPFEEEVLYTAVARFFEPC
As to conditions: DOLU+Gul agar, concentrations 1 nM to 100 μM, 30° C., 30 hours. The procedure: (§1) After incubation, the growth state of the transformed cells was observed and photographed by a digital camera.
(§2) The lowest supply concentrations of trans-zeatin and cis-zeatin in which the respective transformed cells could be grown were shown in Table 1.

The target of experiment [2] is T2, cytokinin receptor AHK3 (transformed cell TM182-AHK3) (Arabidopsis thaliana, UniProt Q9C5U1).
T2 sequence (Q9C5U1 1-1036): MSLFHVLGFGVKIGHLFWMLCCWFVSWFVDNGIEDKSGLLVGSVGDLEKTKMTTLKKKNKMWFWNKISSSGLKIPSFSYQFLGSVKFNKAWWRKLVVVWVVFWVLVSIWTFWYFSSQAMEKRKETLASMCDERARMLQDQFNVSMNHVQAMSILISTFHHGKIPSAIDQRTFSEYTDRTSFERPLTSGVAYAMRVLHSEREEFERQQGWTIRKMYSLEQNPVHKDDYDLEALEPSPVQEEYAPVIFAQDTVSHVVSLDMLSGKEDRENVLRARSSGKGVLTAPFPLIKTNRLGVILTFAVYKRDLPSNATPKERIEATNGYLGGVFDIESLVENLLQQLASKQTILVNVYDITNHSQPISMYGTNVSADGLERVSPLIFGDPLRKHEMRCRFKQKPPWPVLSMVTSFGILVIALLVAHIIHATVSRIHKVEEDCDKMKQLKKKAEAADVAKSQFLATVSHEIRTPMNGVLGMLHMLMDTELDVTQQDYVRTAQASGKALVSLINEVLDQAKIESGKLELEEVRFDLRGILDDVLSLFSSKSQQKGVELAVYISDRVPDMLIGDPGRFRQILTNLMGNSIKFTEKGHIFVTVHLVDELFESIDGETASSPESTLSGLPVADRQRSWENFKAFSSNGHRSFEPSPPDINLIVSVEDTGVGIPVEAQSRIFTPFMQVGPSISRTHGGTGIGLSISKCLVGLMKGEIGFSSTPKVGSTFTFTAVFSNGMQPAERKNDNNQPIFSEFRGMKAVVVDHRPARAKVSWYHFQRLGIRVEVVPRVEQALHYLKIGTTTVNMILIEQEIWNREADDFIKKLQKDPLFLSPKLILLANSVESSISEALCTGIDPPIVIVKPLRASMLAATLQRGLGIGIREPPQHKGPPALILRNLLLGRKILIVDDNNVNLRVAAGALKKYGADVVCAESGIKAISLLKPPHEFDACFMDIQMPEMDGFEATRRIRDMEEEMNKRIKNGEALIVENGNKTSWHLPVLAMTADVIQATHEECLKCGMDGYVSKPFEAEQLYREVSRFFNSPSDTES
Particulars: DOLU+Gul agar containing 10 μM trans-zeatin, 30° C., 30 hours; compared with media containing no trans-zeatin. As to the method:
(§3) Transformation of TM182 (S1n1 Δ), S1n1 genetically detected strain, [Maeda T et al. Nature: 369 242-245 (1994)] was carried out using the obtained expression plasmid p415CYC-CRE1 (the example 5), p415CYC-AHK2 (the example 11), p415CYC-AHK2Δ (the example 11) and p415CYC-AHK3 (the example 8). The transformation was carried out by employing Polyethylene glycol/lithium acetate (PEG/LiAc)-mediated transformation method according to the description of VII. Library Transformation & Screening Protocols disclosed in […] Two-Hybrid System 3 User Manual p.
as §1

Experiment [3] addresses T3, cytokinin receptor CRE1 (transformed cell TM182-CRE1) (Arabidopsis thaliana, UniProt Q9C5U0, S567G/T1018A). Particulars: DOLU+Gul agar containing 10 μM trans-zeatin, 30° C., 30 hours; compared with media containing no trans-zeatin. As to the method:
as §3, §1

Experiment [4] addresses T4, cytokinin receptor AHK2 Δ (transformed cell TM182-AHK2 Δ) (Arabidopsis thaliana, UniProt Q9C5U2).
T4 sequence (Q9C5U2 196-1176): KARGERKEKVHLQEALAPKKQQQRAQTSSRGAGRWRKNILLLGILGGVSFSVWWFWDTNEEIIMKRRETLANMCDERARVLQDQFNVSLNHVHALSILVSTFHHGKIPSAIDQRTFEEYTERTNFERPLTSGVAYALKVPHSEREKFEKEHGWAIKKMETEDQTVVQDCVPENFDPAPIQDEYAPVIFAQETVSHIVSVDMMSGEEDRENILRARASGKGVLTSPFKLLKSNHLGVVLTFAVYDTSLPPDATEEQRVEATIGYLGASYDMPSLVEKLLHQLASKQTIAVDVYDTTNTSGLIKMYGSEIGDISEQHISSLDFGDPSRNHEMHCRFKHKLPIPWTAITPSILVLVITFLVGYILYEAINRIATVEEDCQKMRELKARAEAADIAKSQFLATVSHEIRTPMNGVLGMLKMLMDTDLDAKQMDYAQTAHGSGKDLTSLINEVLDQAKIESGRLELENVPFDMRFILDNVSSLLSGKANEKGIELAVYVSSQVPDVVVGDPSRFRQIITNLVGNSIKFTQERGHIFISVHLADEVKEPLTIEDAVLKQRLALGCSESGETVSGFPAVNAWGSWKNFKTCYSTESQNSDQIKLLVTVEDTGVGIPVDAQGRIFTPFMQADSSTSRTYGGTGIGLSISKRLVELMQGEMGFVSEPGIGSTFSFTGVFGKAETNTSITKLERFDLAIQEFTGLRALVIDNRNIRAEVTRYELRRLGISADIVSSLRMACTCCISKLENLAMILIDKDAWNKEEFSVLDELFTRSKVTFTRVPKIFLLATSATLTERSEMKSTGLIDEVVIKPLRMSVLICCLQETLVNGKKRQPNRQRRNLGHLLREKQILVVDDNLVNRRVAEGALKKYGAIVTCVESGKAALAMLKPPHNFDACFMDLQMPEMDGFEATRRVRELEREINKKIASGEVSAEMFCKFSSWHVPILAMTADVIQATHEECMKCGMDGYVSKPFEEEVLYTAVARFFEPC
Particulars: DOLU+Gul agar containing 10 μM trans-zeatin, 30° C., 30 hours; compared with media containing no trans-zeatin. As to the method:
as §3, §1

The target of experiment [5] is T1, cytokinin receptor AHK2 (transformed cell TM182-AHK2). As to conditions: DOLU+Gul agar containing 10 μM trans-zeatin, 30° C., 30 hours; compared with media containing no trans-zeatin. As to the method:
as §3, §1

Experiment [6] has as its target T3, cytokinin receptor CRE1 (transformed cell TM182-CRE1). As to conditions: DOLU+Gul agar, concentrations 1 nM to 100 μM, 30° C., 30 hours. The procedure:
as §1, §2

Experiment [7] concerns the target T4, cytokinin receptor AHK2 Δ (transformed cell TM182-AHK2 Δ). Particulars: DOLU+Gul agar, concentrations 1 nM to 100 μM, 30° C., 30 hours. The procedure: as §1, §2
For experiment [8] the target is unchanged. In words: Searching agonist-activity to cytokinin receptor (Part 1), optical density of liquid culture. In kind it is cell-based. On the set-up: one added initiator methionine (ATG added 5' of codon 196) (N); expressed in transfected cells; host or cells: Saccharomyces cerevisiae TM182 (sln1 deletion), plasmid p415CYC-AHK2 Δ. Particulars: examinee substance 100 μM final concentration, DOLU+Gul medium, 30° C., 24 hours; DMSO blank 0.
Experimental: The transformed cells TM182-CRE1, TM182-AHK2, TM182-AHK2 Δ and TM182-AHK3 produced in the example 12 were inoculated in 200 ml of DOLU+Gal culture media and pre-cultured at 30° C. for 36 hours. The pre-cultured solutions were diluted with DOLU+Gul media as to become 0.100 as the optical density (0D600) and further the resultants were diluted with DOLU+Gul media at a dilution rate of 1/200 to obtain diluted pre-cultured solutions.
An assay plate was prepared by filling respective wells of a 96-well plate with 20 μl of solutions which were prepared by diluting DMSO solution (10 mM) of each examinee substance with DOLU+Gul medium at a dilution rate of 1/100, said solutions containing each examinee substance to be 100 μM at the final concentration. […]
The diluted pre-cultured solutions were added in 200 μl each into the respective wells of both assay plates and cultured at 30° C. for 24 hours and then the optical density (0D620) of each well was measured by a plate reader. The agonist-activity of the examinee substances to the cytokinin receptor was detected by comparing the optical density measured in the testing sections to which the examinee substances were added with the optical density measured in the blank sections.

T3 sequence (Q9C5U0 24-1080 S567G/T1018A): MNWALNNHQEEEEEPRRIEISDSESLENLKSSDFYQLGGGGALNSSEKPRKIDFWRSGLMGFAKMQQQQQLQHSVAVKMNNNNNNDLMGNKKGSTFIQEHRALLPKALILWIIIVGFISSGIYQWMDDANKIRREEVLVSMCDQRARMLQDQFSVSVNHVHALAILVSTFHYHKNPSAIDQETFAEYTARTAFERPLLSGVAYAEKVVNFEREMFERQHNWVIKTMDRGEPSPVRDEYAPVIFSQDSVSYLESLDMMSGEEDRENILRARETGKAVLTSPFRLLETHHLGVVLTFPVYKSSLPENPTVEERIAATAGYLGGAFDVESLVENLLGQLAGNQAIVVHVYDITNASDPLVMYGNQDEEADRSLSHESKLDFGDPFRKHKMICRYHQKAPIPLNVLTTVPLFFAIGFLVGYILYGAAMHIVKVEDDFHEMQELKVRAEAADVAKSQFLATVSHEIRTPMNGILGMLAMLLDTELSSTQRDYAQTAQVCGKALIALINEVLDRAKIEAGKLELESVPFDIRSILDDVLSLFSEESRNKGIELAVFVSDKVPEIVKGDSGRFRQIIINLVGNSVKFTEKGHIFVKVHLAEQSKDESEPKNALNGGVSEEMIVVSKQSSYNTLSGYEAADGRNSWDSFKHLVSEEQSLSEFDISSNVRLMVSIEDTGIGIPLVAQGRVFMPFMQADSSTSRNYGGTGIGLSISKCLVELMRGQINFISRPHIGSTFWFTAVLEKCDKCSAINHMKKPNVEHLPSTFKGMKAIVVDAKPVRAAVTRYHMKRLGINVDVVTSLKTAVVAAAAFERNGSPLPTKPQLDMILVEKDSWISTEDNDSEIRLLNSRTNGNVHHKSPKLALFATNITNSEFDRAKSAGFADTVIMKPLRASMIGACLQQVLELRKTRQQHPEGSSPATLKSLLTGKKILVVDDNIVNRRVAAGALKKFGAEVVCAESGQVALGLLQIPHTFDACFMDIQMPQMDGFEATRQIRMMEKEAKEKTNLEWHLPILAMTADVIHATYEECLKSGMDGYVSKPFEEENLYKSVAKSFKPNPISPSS

Regarding `C/C(=C\CNc1ncnc2nc[nH]c12)CO` [trans-zeatin], in experiment [1], the “lowest supply concentration in which the transformed cells could be grown, TM182-AHK2” value was 1 µM. In experiment [2], the “growth state of transformed cells TM182-AHK3” value is given as “high growth”. In addition, in experiment [3], the “growth state of transformed cells TM182-CRE1” value is “high growth”. The “growth state of transformed cells TM182-AHK2 Δ” value in experiment [4] was “high growth”. The “growth state of transformed cells TM182-AHK2” value in experiment [5] was “high growth”.

Take `C/C(=C/CNc1ncnc2nc[nH]c12)CO` [cis-zeatin]: the “lowest supply concentration in which the transformed cells could be grown, TM182-CRE1” value in experiment [6] is “no growth”. Moreover, the “lowest supply concentration in which the transformed cells could be grown, TM182-AHK2 A” value in experiment [7] is 1 µM.

Regarding `CC1=CC(=O)CC(C)(C)[C@@]1(O)/C=C/C(C)=C\C(=O)O` [Compound A, Abscisic acid], in experiment [8], the “optical density (OD620) of the culture solution, TM182-AHK2 Δ” value was 0.
